In patent US11957759B1, “Rapidly accelerated fibrosarcoma (RAF) degrading compounds and associated methods of use” (Arvinas Operations, Inc., priority 2022, dated 2024):

What was measured:
B-RAF G466V = molecular target: T1, B-RAF G466V (Homo sapiens, UniProt P15056, G466V); experiment: Target protein degradation, assay D: T-Rex 293 cells, HA-BRAF_G466V, 384 well format; assay type: cell-based; conditions: T-Rex 293 HA-BRAF_G466V cells, 24 hours, Examples 83-269; for DC50: Assay D; for Dmax: T-REx-293, Assay D
T1 construct: expressed in transfected cells; host or cells: T-Rex 293 cells (Invitrogen #R71007)
In short: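 T-Rex 293 cells stably expressing doxycycline-induced (1 ng/mL) HA-BRAF G466V treated 24 h at 37 °C with PROTACs, 11-point 1:3 dilution, 300 nM to 5 pM final, 0.5% DMSO. Fixed cells immunostained for HA and imaged by high-content microscopy; DC50 and Dmax (% of control) derived, toxicity from nuclei counts versus DMSO.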

B-RAF V600E = molecular target: T2, B-RAF V600E (Homo sapiens, UniProt P15056, V600E); experiment: Target protein degradation, assay C: T-Rex 293 cells, HA-BRAF_V600E, 384 well format; assay type: cell-based; conditions: T-Rex 293 HA-BRAF_V600E cells, 24 hours, Examples 83-269; for DC50: Assay C; for Dmax: T-REx-293, Assay C
T2 construct: expressed in transfected cells; host or cells: T-Rex 293 cells (Invitrogen #R71007)
In short: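 T-Rex 293 cells stably expressing doxycycline-induced (1 ng/mL) HA-BRAF V600E were treated 24 h at 37 °C with compound (300 nM–5 pM, 11 points, 0.5% DMSO). HA immunofluorescence was quantified by high-content imaging to give DC50 and Dmax (% of control); nuclei counts versus DMSO gauged toxicity.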

T1 sequence (P15056 whole entry G466V): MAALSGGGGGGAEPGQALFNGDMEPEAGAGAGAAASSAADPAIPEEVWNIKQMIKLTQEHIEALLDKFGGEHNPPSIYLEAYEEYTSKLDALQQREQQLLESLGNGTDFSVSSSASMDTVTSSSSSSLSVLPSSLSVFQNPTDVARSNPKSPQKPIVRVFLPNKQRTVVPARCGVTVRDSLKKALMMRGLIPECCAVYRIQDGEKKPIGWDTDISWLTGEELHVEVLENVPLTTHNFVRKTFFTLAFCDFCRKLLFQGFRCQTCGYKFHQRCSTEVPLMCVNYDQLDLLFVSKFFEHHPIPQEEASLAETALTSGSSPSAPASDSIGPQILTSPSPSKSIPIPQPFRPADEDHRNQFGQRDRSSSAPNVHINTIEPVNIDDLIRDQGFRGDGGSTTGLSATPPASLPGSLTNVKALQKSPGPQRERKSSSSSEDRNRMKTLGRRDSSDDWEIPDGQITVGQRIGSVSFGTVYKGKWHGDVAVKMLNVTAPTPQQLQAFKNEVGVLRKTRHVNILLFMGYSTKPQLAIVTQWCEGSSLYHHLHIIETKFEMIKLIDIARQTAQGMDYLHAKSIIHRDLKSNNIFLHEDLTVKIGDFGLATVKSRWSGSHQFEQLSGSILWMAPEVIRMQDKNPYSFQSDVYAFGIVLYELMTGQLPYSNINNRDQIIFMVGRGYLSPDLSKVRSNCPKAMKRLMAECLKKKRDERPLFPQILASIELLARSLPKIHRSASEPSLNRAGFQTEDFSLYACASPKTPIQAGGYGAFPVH
T2 sequence (P15056 whole entry V600E): as the sequence (P15056 whole entry G466V) above, with V466G, V600E counted along it

DC50 (B-RAF G466V) [nM] | Dmax (B-RAF G466V) [%] | DC50 (B-RAF V600E) [nM] | Dmax (B-RAF V600E) [%] | SMILES
1 to 10 | ≤ 35 | 50 to 500 | 35 to 70 | N#Cc1c(NS(=O)(=O)N2CC[C@@H](F)C2)ccc(F)c1Oc1ccc2ncn(-c3ccc(N4CCC(CCCN5CCN(c6ccc7c(c6)C(=O)N(C6CCC(=O)NC6=O)C7=O)CC5)CC4)nc3)c(=O)c2c1 (stereo partly drawn) [Example 167, (3R)-N-{2-cyano-3-[(3-{6-[4-(3-{4-[2-(2,6-dioxopiperidin-3-yl)-1,3-dioxo-2,3-dihydro-1H-isoindol-5-yl]piperazin-1-yl}propyl)piperidin-1-yl]pyridin-3-yl}-4-oxo-3,4-dihydroquinazolin-6-yl)oxy]-4-fluorophenyl}-3-fluoropyrrolidine-1-sulfonamide]
1 to 10 | ≤ 35 | 50 to 500 | ≥ 70 | CN(CC1CCN(c2ccc(-n3cnc4ccc(Oc5c(F)ccc(NS(=O)(=O)N6CC[C@@H](F)C6)c5C#N)cc4c3=O)cc2)CC1)[C@H]1C[C@@H](Oc2ccc3c(c2)CN([C@H]2CCC(=O)NC2=O)C3=O)C1 [Example 206, (3R)-N-{2-cyano-4-fluoro-3-[(3-{4-[4-({methyl[(1r,3r)-3-({2-[(3S)-2,6-dioxopiperidin-3-yl]-1-oxo-2,3-dihydro-1H-isoindol-5-yl}oxy)cyclobutyl]amino}methyl)piperidin-1-yl]phenyl}-4-oxo-3,4-dihydroquinazolin-6-yl)oxy]phenyl}-3-fluoropyrrolidine-1-sulfonamide]
1 to 10 | ≤ 35 | 50 to 500 | 35 to 70 | N#Cc1c(NS(=O)(=O)N2CC[C@@H](F)C2)ccc(F)c1Oc1ccc2ncn(-c3ccc(N4CCC(CN5CCC6(CC5)CN(c5cccc7c5CN(C5CCC(=O)NC5=O)C7=O)C6)CC4)nc3)c(=O)c2c1 (stereo partly drawn) [Example 169, (3R)-N-{2-cyano-3-[(3-{6-[4-({2-[2-(2,6-dioxopiperidin-3-yl)-1-oxo-2,3-dihydro-1H-isoindol-4-yl]-2,7-diazaspiro[3.5]nonan-7-yl}methyl)piperidin-1-yl]pyridin-3-yl}-4-oxo-3,4-dihydroquinazolin-6-yl)oxy]-4-fluorophenyl}-3-fluoropyrrolidine-1-sulfonamide]
1 to 10 | 35 to 70 | 50 to 500 | 35 to 70 | CN(c1ccc2c(c1)CN([C@H]1CCC(=O)NC1=O)C2=O)[C@H]1CC[C@H](N2CCN(c3ccc(-n4cnc5ccc(Oc6c(F)ccc(NS(=O)(=O)N7CC[C@@H](F)C7)c6C#N)cc5c4=O)cc3)CC2)CC1 [Example 231, (3R)-N-(2-cyano-4-fluoro-3-{[4-oxo-3-(4-(4-[(1s,4s)-4-({2-[(3S)-2,6-dioxopiperidin-3-yl]-1-oxo-2,3-dihydro-1H-isoindol-5-yl}(methyl)amino)cyclohexyl]piperazin-1-yl}phenyl)-3,4-dihydroquinazolin-6-yl]oxy}phenyl)-3-fluoropyrrolidine-1-sulfonamide]
10 to 30 | 35 to 70 | 50 to 500 | 35 to 70 | Cc1c(NS(=O)(=O)N2CC[C@@H](F)C2)ccc(F)c1Oc1ccc2ncn(-c3ccc(N4CCN(CC5CCN(c6ccc7c(c6)CN(C6CCC(=O)NC6=O)C7=O)CC5)CC4)cc3)c(=O)c2c1 (stereo partly drawn) [Example 210, (3R)-N-{3-[(3-{4-[4-({1-[2-(2,6-dioxopiperidin-3-yl)-1-oxo-2,3-dihydro-1H-isoindol-5-yl]piperidin-4-yl}methyl)piperazin-1-yl]phenyl}-4-oxo-3,4-dihydroquinazolin-6-yl)oxy]-4-fluoro-2-methylphenyl}-3-fluoropyrrolidine-1-sulfonamide]

Further lines, the compound ahead of its results:

SMILES | DC50 (B-RAF G466V) [nM] | Dmax (B-RAF G466V) [%] | DC50 (B-RAF V600E) [nM] | Dmax (B-RAF V600E) [%]
N#Cc1c(NS(=O)(=O)N2CC[C@@H](F)C2)ccc(F)c1Oc1ccc2ncn(-c3cnc(N4CCC(CN5CCC6(CC5)CCN(c5ccc7c(c5)C(=O)N(C5CCC(=O)NC5=O)C7=O)CC6)CC4)nc3)c(=O)c2c1 (stereo partly drawn) [Example 129, (3R)-N-{2-cyano-3-[(3-{2-[4-({9-[2-(2,6-dioxopiperidin-3-yl)-1,3-dioxo-2,3-dihydro-1H-isoindol-5-yl]-3,9-diazaspiro[5.5]undecan-3-yl}methyl)piperidin-1-yl]pyrimidin-5-yl}-4-oxo-3,4-dihydroquinazolin-6-yl)oxy]-4-fluorophenyl}-3-fluoropyrrolidine-1-sulfonamide] | 1 to 10 | 35 to 70 | 50 to 500 | 35 to 70
N#Cc1c(NS(=O)(=O)N2CC[C@@H](F)C2)ccc(F)c1Oc1ccc2ncn(-c3ccc(N4CCC5(CCN(CC6CCN(c7ccc8c(c7)C(=O)N(C7CCC(=O)NC7=O)C8=O)CC6)CC5)CC4)nc3)c(=O)c2c1 (stereo partly drawn) [Example 145, (3R)-N-{2-cyano-3-[(3-{6-[9-({1-[2-(2,6-dioxopiperidin-3-yl)-1,3-dioxo-2,3-dihydro-1H-isoindol-5-yl]piperidin-4-yl}methyl)-3,9-diazaspiro[5.5]undecan-3-yl]pyridin-3-yl}-4-oxo-3,4-dihydroquinazolin-6-yl)oxy]-4-fluorophenyl}-3-fluoropyrrolidine-1-sulfonamide] | 1 to 10 | 35 to 70 | 50 to 500 | 35 to 70
N#Cc1c(NS(=O)(=O)N2CC[C@@H](F)C2)ccc(F)c1Oc1ccc2ncn(-c3ccc(N4CCN(CC5CCN(c6ccc(N7CCC(=O)NC7=O)c(F)c6)CC5)CC4)nc3)c(=O)c2c1 [Example 142, (3R)-N-{2-cyano-3-[(3-{6-[4-({1-[4-(2,4-dioxo-1,3-diazinan-1-yl)-3-fluorophenyl]piperidin-4-yl}methyl)piperazin-1-yl]pyridin-3-yl}-4-oxo-3,4-dihydroquinazolin-6-yl)oxy]-4-fluorophenyl}-3-fluoropyrrolidine-1-sulfonamide] | ≤ 1 | ≤ 35 | 5 to 50 | 35 to 70
N#Cc1c(NS(=O)(=O)N2CC[C@@H](F)C2)ccc(F)c1Oc1ccc2ncn(-c3cnc(C4(N5CCN(CC6CCN(c7ccc8c(c7)CN(C7CCC(=O)NC7=O)C8=O)CC6)CC5)CC4)nc3)c(=O)c2c1 (stereo partly drawn) [Example 100, (3R)-N-(2-cyano-3-{[3-(2-{1-[4-({1-[2-(2,6-dioxopiperidin-3-yl)-1-oxo-2,3-dihydro-1H-isoindol-5-yl]piperidin-4-yl}methyl)piperazin-1-yl]cyclopropyl}pyrimidin-5-yl)-4-oxo-3,4-dihydroquinazolin-6-yl]oxy}-4-fluorophenyl)-3-fluoropyrrolidine-1-sulfonamide] | 1 to 10 | 35 to 70 | 50 to 500 | 35 to 70
N#Cc1c(NS(=O)(=O)N2CC[C@@H](F)C2)ccc(F)c1Oc1ccc2ncn(-c3cnc(N4CCC(CN5CCC6(CC5)CN(c5cccc7c5CN(C5CCC(=O)NC5=O)C7=O)C6)CC4)nc3)c(=O)c2c1 (stereo partly drawn) [Example 131, (3R)-N-{2-cyano-3-[(3-{2-[4-({2-[2-(2,6-dioxopiperidin-3-yl)-1-oxo-2,3-dihydro-1H-isoindol-4-yl]-2,7-diazaspiro[3.5]nonan-7-yl}methyl)piperidin-1-yl]pyrimidin-5-yl}-4-oxo-3,4-dihydroquinazolin-6-yl)oxy]-4-fluorophenyl}-3-fluoropyrrolidine-1-sulfonamide] | 1 to 10 | ≤ 35 | 50 to 500 | 35 to 70
N#Cc1c(NS(=O)(=O)N2CC[C@@H](F)C2)ccc(F)c1Oc1ccc2ncn(-c3ccc(N4CCN(CC5CCN(c6ccc7c(c6)CN(C6CCC(=O)NC6=O)C7=O)CC5)CC4)cc3F)c(=O)c2c1 (stereo partly drawn) [Example 87, (3R)-N-{2-cyano-3-[(3-{4-[4-({1-[2-(2,6-dioxopiperidin-3-yl)-1-oxo-2,3-dihydro-1H-isoindol-5-yl]piperidin-4-yl}methyl)piperazin-1-yl]-2-fluorophenyl}-4-oxo-3,4-dihydroquinazolin-6-yl)oxy]-4-fluorophenyl}-3-fluoropyrrolidine-1-sulfonamide] | > 30 | – | > 500 | –
N#Cc1c(NS(=O)(=O)N2CC[C@@H](F)C2)ccc(F)c1Oc1ccc2ncn(-c3cnc(N4CCN(CCN5CCN(c6ccc7c(c6)CN(C6CCC(=O)NC6=O)C7=O)CC5)CC4)nc3)c(=O)c2c1 (stereo partly drawn) [Example 151, (3R)-N-{2-cyano-3-[(3-{2-[4-(2-{4-[2-(2,6-dioxopiperidin-3-yl)-1-oxo-2,3-dihydro-1H-isoindol-5-yl]piperazin-1-yl}ethyl)piperazin-1-yl]pyrimidin-5-yl}-4-oxo-3,4-dihydroquinazolin-6-yl)oxy]-4-fluorophenyl}-3-fluoropyrrolidine-1-sulfonamide] | 1 to 10 | 35 to 70 | 5 to 50 | 35 to 70
Cn1c(=O)n(C2CCC(=O)NC2=O)c2cccc(N3CCC(CN4CCN(c5ccc(-n6cnc7ccc(Oc8c(F)ccc(NS(=O)(=O)N9CC[C@@H](F)C9)c8C#N)cc7c6=O)cc5)CC4)CC3)c21 (stereo partly drawn) [Example 98, (3R)-N-{2-cyano-3-[(3-{4-[4-({1-[1-(2,6-dioxopiperidin-3-yl)-3-methyl-2-oxo-2,3-dihydro-1H-1,3-benzodiazol-4-yl]piperidin-4-yl}methyl)piperazin-1-yl]phenyl}-4-oxo-3,4-dihydroquinazolin-6-yl)oxy]-4-fluorophenyl}-3-fluoropyrrolidine-1-sulfonamide] | 1 to 10 | 35 to 70 | 50 to 500 | 35 to 70
